Results: patent publication US8313914B2, “Compositions and methods for modulation of cell migration” (Angstrom Pharmaceuticals, Inc., priority 2009, dated 2012)
Entries after “also recorded” stand apart in the source; their conditions may differ. No end group written: not given here.

Experiments:
[1] = test system: SKOV3 cells; test: Boyden chamber migration of SKOV3 cells induced by NIH3T3-CM/VEGF; format: cell-based; settings: for Effective concentration for cell migration inhibition, lower end / Effective concentration for cell migration inhibition, upper end: SKOV3 migration
Description: (§1) A2780 (FIG. 10a) and SKOV3 (FIG. 10b) cells were incubated with the indicated concentrations of Å6 peptide for 30 min at 37° C. Aliquots representing 6,000 cells were placed on quadruplicate, CnI-coated filters (8 μm pores) in Boyden chambers and the cells allowed to migrate overnight in response to 10 ng/ml VEGF in NIH3T3-conditioned media containing the indicated concentrations of Å6. Upon completion of migration, the apical surfaces of the membranes were wiped clean and the migrating cells on the basal surface were stained with Geimsa stain and the cells present in representative fields of the membranes counted. Data represent the averages+/−standard deviations obtained from the replicate filters. […] This provides further confirmation that CD44 is the target for the Å6 peptide.
SKOV3 cells are harvested by trypsinization and washed once with RPMI-0.5% BSA. Next, the cells are re-suspended in RPMI+0.5% BSA@6E4/mL (6000 cells/100 μL). The peptide is pre-treated with 500 μL of cells added to 500 μL peptide NASAPPEE (SEQ ID NO: 3) (2× concentration, final conc, at 100, 10, 1, 0.1, 0.01, 0.001 uM) and the mixture incubated 30 minutes at 37° C., under 5% CO2. The Boyden chamber is assembled by: Placing in the bottom chambers: 220 μL of serum/BSA free DMEM or NIH3T3CM+10 ng/ml VEGF or NIH3T3CM+10 ng/ml VEGF+peptide. Place 8 μm filters on the top of the bottom chambers. The 8 μm filters are coated with 1 mg/ml collagen I at 4° C. overnight, washed with PBS twice, air dry before use. Add 200 μL of cells with or without peptide pretreatment to the top of Boyden chamber. Note that the peptide is in both top and bottom chambers. Cells migrate overnight at 37° C., under 5% CO2 in incubator. Next, Boyden chambers are disassembled the and filters collected. The cells on the filters after collection are treated with −20° C. methanol for 3 minutes at room temperature and stained with 30% Geimsa for 7 minutes at room temperature, and washed with water twice. The filters are mounted on slides, air dried and the cells counted.
Cell numbers were obtained by counting the cells in four fields of filters using a 40× objective. The cells migrating into the bottom chambers were also counted as follows: a) 200 μL fluid in the bottom chamber was transferred to a well of 96-well plate; b) The plate was centrifuged at 1200 rpm for 5 minutes; c) 180 μL of supernatant was removed; d) The cell pellet was resuspended with the remaining 20 μL fluid and the cells counted using a hemocytometer. […] This compares favorably to the Å6 peptide which is effective between 5 μM and 100 nM.

[2] = target: T1, CD44 (Homo sapiens, UniProt P16070); test: Dimerization of CD44 in SKOV3 cells, anti-CD44 B-F24 immunoblot; format: cell-based; settings: SKOV3 cultured 20 hr with 1 or 10 μM Å6, non-reducing
T1 construct: endogenous in cells; host or cells: SKOV3
T1 sequence (P16070 21-742): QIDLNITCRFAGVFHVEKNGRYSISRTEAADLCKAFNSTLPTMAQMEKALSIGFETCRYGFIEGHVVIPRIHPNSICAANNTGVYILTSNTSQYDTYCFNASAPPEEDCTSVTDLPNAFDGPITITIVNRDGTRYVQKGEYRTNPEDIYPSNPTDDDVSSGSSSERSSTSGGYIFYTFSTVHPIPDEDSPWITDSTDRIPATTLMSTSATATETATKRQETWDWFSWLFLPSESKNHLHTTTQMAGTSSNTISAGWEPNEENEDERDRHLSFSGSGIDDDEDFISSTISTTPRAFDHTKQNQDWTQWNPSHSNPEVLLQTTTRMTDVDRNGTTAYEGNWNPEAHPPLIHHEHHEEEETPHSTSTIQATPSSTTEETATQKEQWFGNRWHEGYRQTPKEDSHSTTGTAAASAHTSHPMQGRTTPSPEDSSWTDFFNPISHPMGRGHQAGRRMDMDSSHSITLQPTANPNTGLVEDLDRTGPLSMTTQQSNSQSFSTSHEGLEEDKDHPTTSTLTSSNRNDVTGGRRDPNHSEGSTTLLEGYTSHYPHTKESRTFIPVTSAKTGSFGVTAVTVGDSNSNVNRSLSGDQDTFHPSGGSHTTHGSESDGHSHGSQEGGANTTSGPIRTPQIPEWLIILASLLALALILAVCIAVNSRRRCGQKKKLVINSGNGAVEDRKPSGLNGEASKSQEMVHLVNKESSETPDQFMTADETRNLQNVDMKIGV
Description: In FIG. 13 SKOV3 cells were cultured for 20 hr with no additions, 1 or 10 μM Å6 or 100 ng/ml PMA. Triton X-100 lysates were generated and further solubilized in SDS-PAGE sample buffer under non-reducing conditions. Aliquots representing 7.5 μg of cellular protein were subjected to SDS-PAGE followed by immunoblot analysis with the anti-CD44 murine monoclonal B-F24. The presence of stained higher molecular weight bands can be indicative of CD44 dimers and/or oligomers.

[3] = test system: B16 melanoma cells; test: B16 melanoma lung metastasis model; format: in vivo, C57BL/6J mice; settings: about 1×10^5 melanoma cells injected in the tail vein
Description: The B16 melanoma metastasis is well known in the art. A typical protocol for assessing the inhibitory effect of a compound on metastasis is described below. Such a protocol was followed to assess the effect of Å6 on metastasis.
Briefly, B16 melanoma cells can be cultured in RPMI-1640 with 10% fetal bovine serum at 37° C. in an atmosphere of 95% air and 5% CO2. C57BL/6J mice of six to eight weeks can be purchased from commercial suppliers. For the lung metastasis model, about 1×10^5 melanoma cells suspended in 100 μl saline were injected in the tail vein in the presence or absence of Å6. Administration of the Å6 peptide inhibited the lung metastasis by 50% or more.

[4] = target: T1, CD44; test: Immunoprecipitation of Å6Cbio-crosslinked SKOV3 polypeptides with anti-CD44, HRP-SA blotting; format: binding; settings: SKOV3 cells, 100 μM Å6Cbiotin, BS3 crosslinking, anti-CD44 DF1485
Description: In FIGS. 1 and 2 SKOV3 cells were incubated with or without 100 μM Å6Cbiotin (Å6CbioXL and ConXL, respectively) for 30 min at 4° C. The cells were then crosslinked with 5 mM bis(sulfosuccinimidyl) suberate (Sulfo-DSS or BS^3) for 30 min at 4° C. and Triton X-100 lysates generated. The lysates were pre-cleared by incubating with Protein A-agarose for 2 hr at room temperature. Aliquots representing 100 μg of the cleared lysates were then incubated overnight at room temperature with 20 μL of Protein A-agarose plus 2 μg of anti-Tenascin R (TnR; E-18, Santa Cruz Biotech.), anti-Tenascin C (TnC; 300-3, Santa Cruz Biotech.), anti-CD44 (DF1485, Santa Cruz Biotech.), anti-Plexin-A1 (P1 A1; H-60, Santa Cruz Biotech.) or murine IgG1 (Sigma Chem. Co.). After washing 5 times with lysis buffer, the immunoprecipitated polypeptides were eluted from the Protein A-agarose by boiling in SDS-PAGE sample buffer. The eluted material and 2 μg aliquots of the starting material were then subjected to SDS-PAGE, transfer to PVDF membranes and blotting with chemiluminescent horseradish peroxidase (HRP)-conjugated streptavidin (HRP-SA).
In FIG. 3 SKOV3 cells were incubated with or without 100 μM Å6Cbiotin (Å6CbioXL and control, respectively) for 30 minutes at 4° C. The cells were then crosslinked with 5 mM BS3 for 30 min at 4° C. […]

[5] = target: T2, CD44 on SKOV3 cells (Homo sapiens, UniProt P16070); test: FACs analysis of IM7 binding to SKOV3 cells in the presence of Å6; format: cell-based; settings: IM7 1 μg/ml, 4° C.
T2 construct: endogenous in cells; host or cells: SKOV3
T2 sequence (P16070 21-742): as above
Description: In FIGS. 14a and 14b SKOV3 cells were incubated with the indicated concentrations of Å6 for 30 min at 4° C. IM7 (1 μg/ml) was then added and allowed to bind for 30 min at 4° C., after which the cells were washed and incubated with FITC-donkey anti-rat IgG for 30 min at 4° C. The cells were washed once and then subjected to FACs analysis.

[6] = test system: A2780 cells; test: Adhesion of A2780 cells to hyaluronic acid; format: cell-based; settings: immobilized HA; 1 or 10 μM Å6
Description: In FIG. 12 A2780 cells were cultured overnight with or without 10 μM Å6 or 100 ng/ml PMA. The cells were then detached, washed and loaded with 20 μg/ml CFDA-SE for 30 min at 37° C. After washing, the cells were resuspended in PBS containing 10% FCS and triplicate aliquots representing 100,000 cells incubated for 30 min at room temperature with no additions, 1 or 10 μM Å6 or with 20 ng/ml IM7, a blocking anti-CD44 rat monoclonal antibody. The cells were then placed into microtiter wells that had been coated with 50 ul of 1 mg/ml HA overnight and blocked for 30 min with 10% FCS. The cells were allowed to adhere at room temperature for 30 min after which, the wells were decanted and washed 3 times. The fluorescence in each well was assessed (excit./emiss.: 460/536 nm) and the mean fluorescence values (+/standard deviation) of the triplicate determinations calculated.

[7] = target: T2, CD44 on SKOV3 cells; test: FACs analysis of anti-CD44 (DF1485) binding to SKOV3 cells in the presence of Å6; format: cell-based; settings: pre-incubation with Å6 on ice 10 or 30 min, FACS MnI
Description: In FIG. 4 SKOV3 cells were detached from their culture flasks by brief trypsinization, washed twice with DPBS and incubated on ice with the indicated concentrations of Å6 for 10 min (exp. 1) or 30 min (exp. 2). Anti-CD44 (DF1485; Santa Cruz Biotech.) or its isotype control were then added to final concentrations of 1 μg/ml (exp. 1) or 1 and 0.5 μg/ml (exp. 2) and the cells incubated for 1 hr on ice. The cells were washed once and incubated with FITC-conjugated donkey anti-mouse IgG (H+L) for 30 minutes on ice and then subjected to FACS analysis with a Beckman Coulter Epics XL-MCL cytofluorimeter. Data analysis was performed using the Coulter Epics software. Note: Data are presented as mean fluorescence intensities (MnI) obtained with the MnI of the negative control in each experiment adjusted to <0.5 during data collection. […] Similar CD44 expression in ovarian cancer lines using different anti-CD44 antibodies is assessed in FIG. 5, for which the MnI values are summarized in FIG. 6.

[8] = test system: SKOV3 cells; test: Adhesion of SKOV3 cells to hyaluronic acid; format: cell-based
Description: In FIG. 11 SKOV3 cells were cultured overnight with or without 10 μM Å6 or 100 ng/ml PMA. The cells were then detached, washed and loaded with 20 μg/ml CFDA-SE for 30 min at 37° C. After washing, the cells were resuspended in PBS containing 10% FCS and triplicate aliquots representing 100,000 cells incubated for 30 min at room temperature with no additions, 1 or 10 uM Å6 or with 20 ng/ml IM7, a blocking anti-CD44 rat monoclonal antibody. The cells were then placed into microtiter wells that had been coated with 50 μl, of 1 mg/mL HA overnight and blocked for 30 min with 10% FCS. The cells were allowed to adhere at room temperature for 30 minutes after which, the wells were decanted and washed 3 times. The fluorescence in each well was assessed (excit./emiss.: 460/536 nm) and the mean fluorescence values (+/standard deviation) of the triplicate determinations calculated. […] The control experiment with IM7 (graphs on far right) indicates inhibition of SKOV3 binding to HA in the presence of this anti-CD44, which indicates a role for CD44 in binding HA.

[9] = test system: A2780 cells; test: Boyden chamber chemotaxis of A2780 cells; format: cell-based; settings: 10 ng/ml VEGF in NIH3T3-conditioned media, overnight
Description: as §1

[10] = target: T1, CD44; test: Anti-CD44 (DF1485) immunoblot analysis of Å6CbioXL polypeptides and Å6-BSA; format: binding; settings: SKOV3 lysates
Description: In FIG. 7 30 μg aliquots of Å6CbioXL and control (ConXL) SKOV3 lysates, as well as 2 μg aliquots of Å6-crosslinked BSA (Å6-BSA) and BSA, were subjected to immunoblot analysis using the DF1485 anti-CD44 antibody (Santa Cruz Biotech). The DF1485 blots were stained with HRP-conjugated sheep anti-Mouse IgG; heavy and light chain specific (GE Health Sciences). The rabbit anti-Å6 blot was stained with HRP-conjugated donkey anti-rabbit IgG; heavy and light chain specific (Jackson Immunoresearch). Stained bands were visualized by the ECL-plus chemiluminescence reagent (GE Health Sciences) and exposure to Hyperfilm ECL film (GE). In panel 1, anti-CD44 produced bands in the Å6CbioXL (A lane) and control (C) lane. […] In addition, 2 μg aliquots of the Å6CbioXL and ConXL lysates were concurrently blotted with HRP-streptavidin to identify polypeptides labeled with Å6Cbio, and shown in panel 2. 2 μg of Å6-BSA and BSA were also blotted with Rb anti-Å6 to confirm the presence of Å6 on the Å6-BSA, as shown in the third panel of FIG. 7.

NASAPPEE
Effective concentration for cell migration inhibition, lower end [1]: 1 nM | Effective concentration for cell migration inhibition, upper end [1]: 100 µM

Ac-KPSSPPEE-Am (Ac-KPSSPPEE-NH2) [Å6]
Formation of higher molecular weight CD44 bands (dimers/oligomers) [2]: higher molecular weight bands are formed | Inhibition of lung metastasis [3]: ≥ 50% | Target identified by immunoprecipitation of crosslinked biotinylated peptide [4]: targets CD44; also recorded: CD44 as the target | Effect on IM7 antibody binding to SKOV3 cells [5]: increase in antibody binding with increasing concentration | Effect on A2780 binding to HA [6]: does not substantially modulate | Effect on binding of DF1485 anti-CD44 to SKOV3 cells [7]: inhibits the binding of DF1485 anti-CD44 to SKOV3 cells | Effect of a 10-fold increase in peptide concentration on SKOV3 binding to HA ([8]; 1 vs 10 μM Å6): little effect | Effect on SKOV3 binding to HA ([8]; immobilized HA, 1 or 10 μM Å6, 20 ng/ml IM7): enhanced | Effect on migration of A2780 cells [9]: essentially unaffected | Effect on migration of SKOV3 cells ([1]; 10 ng/ml VEGF in NIH3T3-conditioned media, overnight): strong inhibition | Effective concentration for cell migration inhibition, lower end [1]: 100 nM | Effective concentration for cell migration inhibition, upper end [1]: 5 µM

Å6CbioXL: SKOV3 cells incubated with 100 μM Å6Cbiotin and crosslinked with BS3; lysate polypeptides labeled with Å6Cbio (KPSSPPEE; also: biotin label (Cbio) at an unstated position, BS3 crosslinked to cell polypeptides)
Effect on binding of anti-CD44 to CD44 (band intensity) [10]: reduces the binding of anti-CD44 to CD44
